Results published in article PMC6117091, “The C. difficile clnRAB operon initiates adaptations to the host environment in response to LL-37” (PLoS Pathogens, 2018).
≈ marks a conversion by molar mass, not a printed value. Like-named read-outs stand apart in the source and are kept apart here. Where a SMILES comes first, the peptide text is derived from it. Bridges are numbered along the chain shown (N, C = ends). Where no end group is shown, it is not given here. [ ]: non-standard residue; d: D form. The star is where a group is joined. X1 = CC[C@H](C)CCCCC(=O)*; Dab = NCC[C@H](N)C(=O)O

Key:
[1] = test system: clnR expression in C. difficile 630Δerm; assay: clnR expression by qRT-PCR after exposure to antimicrobials (induction specificity); settings: for Induction of clnR transcription (in words): concentrations of Table 1; for Relative clnR expression: BHIS, mean of three replicates ± SEM
[2] = test system: C. difficile clnAB mutant (MC935); assay: Minimum inhibitory concentration (MIC); assay type: cell-based, Clostridioides difficile; settings: Mueller-Hinton Broth, 24 h, 37°C, anaerobic, ~5 x 10^5 CFU/ml
Protocol: (§1) Minimum inhibitory concentrations (MIC) were determined as previously described. […] Briefly, overnight cultures of C. difficile strains were diluted 1:50 in Mueller-Hinton Broth (Difco) and grown to OD600 of 0.45 (~5 x 10^7 CFU/ml). Cultures were then diluted 1:10 in MHB and seeded at a further 1:10 dilution in a round-bottom 96-well plate prepared with serial dilutions of antimicrobials for a starting concentration of ~5 x 10^5 CFU/ml. Plates were incubated for 24 h at 37°C in the anaerobic chamber.

C. difficile 630Δerm = assay: Minimum inhibitory concentration (MIC); assay type: cell-based, Clostridioides difficile; settings: Mueller-Hinton Broth, 24 h, 37°C, anaerobic, ~5 x 10^5 CFU/ml
Protocol: as §1

[3] = test system: C. difficile clnR mutant (MC885); assay: Minimum inhibitory concentration (MIC); assay type: cell-based, Clostridioides difficile; settings: Mueller-Hinton Broth, 24 h, 37°C, anaerobic, ~5 x 10^5 CFU/ml
Protocol: as §1

[4] = molecular target: LL-37 (human cathelicidin) (human)
[5] = Clostridioides difficile, read-out: MIC

In the case of `CN[C@H](CC(C)C)C(=O)N[C@H]1C(=O)N[C@@H](CC(N)=O)C(=O)N[C@H]2C(=O)N[C@H]3C(=O)N[C@H](C(=O)N[C@H](C(=O)O)c4cc(O)cc(O)c4-c4cc3ccc4O)[C@H](O)c3ccc(c(Cl)c3)Oc3cc2cc(c3O[C@@H]2O[C@H](CO)[C@@H](O)[C@H](O)[C@H]2O[C@H]2C[C@](C)(N)[C@H](O)[C@H](C)O2)Oc2ccc(cc2Cl)[C@H]1O` [Vancomycin, vancomycin], the “Induction of clnR transcription (in words)” value (shortened to “Induction”) [1] is reported as “none of the other cell-surface-active antimicrobials tested”, the MIC [2, 5] is reported as 1 µg/mL (≈ 0.69 µM) and the MIC (C. difficile 630Δerm; [5]) is reported as 1 µg/mL (≈ 0.69 µM). For the same compound, the MIC [3, 5] was 1 µg/mL (≈ 0.69 µM).

With mCRAMP the “Relative clnR expression” value ([1]; 2 μg/ml, normalized to 630Δerm in BHIS without antimicrobials) was 111.4 ± 27.3 and the “Induction” value [1] was “also induced”.

For “Recombinant N-terminally His-tagged ClnR (natural protein)”, the Kd [4] was 83 nM.

In the case of `CC1(C)S[C@@H]2[C@H](NC(=O)[C@H](N)c3ccccc3)C(=O)N2[C@H]1C(=O)O` [Ampicillin, ampicillin], the “Induction” value [1] is reported as “none of the other cell-surface-active antimicrobials tested”, the MIC [2, 5] is reported as 4 µg/mL (≈ 11.4 µM) and the MIC (C. difficile 630Δerm; [5]) is reported as 4 µg/mL (≈ 11.4 µM). It also gave an MIC [3, 5] of 4 µg/mL (≈ 11.4 µM).

In the case of Lysozyme, the “Relative clnR expression” value ([1]; 1 mg/ml, normalized to 630Δerm without antimicrobials) is reported as 1.1 ± 0.3 and the “Induction” value [1] is reported as “none of the other cell-surface-active antimicrobials tested”.

“nisin (ITSISLCTPGCKTGALMGCNMKTATCHCSIHVSK; also: lantibiotic, modified residues and rings not given here; UniProt P13068 24-57, looked up)” was tested, and the “Relative clnR expression” value ([1]; 7.5 μg/ml, normalized to 630Δerm without antimicrobials) was 1.1 ± 0.4, the “Induction” value [1] was “none of the other cell-surface-active antimicrobials tested” and the MIC [2] was 360 µg/mL. It also gave an MIC (C. difficile 630Δerm) of 360 µg/mL and an MIC [3] of 360 µg/mL.

With `CC[C@H](C)CCCCC(=O)N[C@@H](CCN)C(=O)N[C@H](C(=O)N[C@@H](CCN)C(=O)N[C@H]1CCNC(=O)[C@H]([C@@H](C)O)NC(=O)[C@H](CCN)NC(=O)[C@H](CCN)NC(=O)[C@H](CC(C)C)NC(=O)[C@@H](Cc2ccccc2)NC(=O)[C@H](CCN)NC1=O)[C@@H](C)O` [Polymyxin B, polymyxin B] (X1-[Dab]T[Dab][Dab][Dab][dF]L[Dab][Dab]T; lactam 4-C (inferred); N-terminus assumed) the “Relative clnR expression” value ([1]; 200 μg/ml, normalized to 630Δerm without antimicrobials) was 1.2 ± 0.2, the “Induction” value [1] was “none of the other cell-surface-active antimicrobials tested” and the MIC [2] was 500 µg/mL (≈ 415 µM). It also gave an MIC (C. difficile 630Δerm) of 500 µg/mL (≈ 415 µM) and an MIC [3] of 500 µg/mL (≈ 415 µM).
